Like-named read-outs stand apart in the source and are kept apart here.
Key:
[1] = target: sigma 1 receptor (Homo sapiens, UniProt Q99720); experiment: Sigma 1 receptor radioligand competition binding; details: Table 1, 7-piperazinyl-tetrahydronaphthalene analogs; read-out: Ki (nM) Sig1R
[2] = target: sigma 2 receptor (Homo sapiens, UniProt Q5BJF2); experiment: Sigma 2 receptor radioligand competition binding
[3] = target: T1, 5-HT1A (Homo sapiens, UniProt P08908); experiment: Radioligand competition binding, 5-HT1A; details: Table 5; Cheng-Prusoff from best fit IC50
T1 sequence (P08908 1-422): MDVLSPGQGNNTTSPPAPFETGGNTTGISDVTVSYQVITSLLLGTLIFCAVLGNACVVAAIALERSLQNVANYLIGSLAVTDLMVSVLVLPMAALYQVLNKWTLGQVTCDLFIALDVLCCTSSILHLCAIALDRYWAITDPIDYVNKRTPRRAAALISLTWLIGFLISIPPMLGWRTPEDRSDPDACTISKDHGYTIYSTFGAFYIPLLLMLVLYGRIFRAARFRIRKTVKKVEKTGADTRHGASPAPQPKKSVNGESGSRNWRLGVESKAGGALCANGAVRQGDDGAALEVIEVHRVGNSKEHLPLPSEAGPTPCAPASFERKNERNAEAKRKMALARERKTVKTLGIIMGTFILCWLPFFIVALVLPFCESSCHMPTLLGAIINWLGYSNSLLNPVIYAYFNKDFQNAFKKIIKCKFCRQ

[4] = target: 5-HT1B (Homo sapiens, UniProt P28222); experiment: Radioligand competition binding, 5-HT1B; details: Table 5; Cheng-Prusoff from best fit IC50
[5] = target: 5-HT1D (Homo sapiens, UniProt P28221); experiment: Radioligand competition binding, 5-HT1D; details: Table 5; Cheng-Prusoff from best fit IC50
[6] = target: 5-HT2A (Homo sapiens, UniProt P28223); experiment: Radioligand competition binding, 5-HT2A; details: Table 5; Cheng-Prusoff from best fit IC50
[7] = target: 5-HT2B (Homo sapiens, UniProt P41595); experiment: Radioligand competition binding, 5-HT2B; details: Table 5; Cheng-Prusoff from best fit IC50
[8] = target: T2, 5-HT2C (Homo sapiens, UniProt P28335); experiment: Radioligand competition binding, 5-HT2C; details: Table 5; Cheng-Prusoff from best fit IC50
T2 sequence (P28335 33-458): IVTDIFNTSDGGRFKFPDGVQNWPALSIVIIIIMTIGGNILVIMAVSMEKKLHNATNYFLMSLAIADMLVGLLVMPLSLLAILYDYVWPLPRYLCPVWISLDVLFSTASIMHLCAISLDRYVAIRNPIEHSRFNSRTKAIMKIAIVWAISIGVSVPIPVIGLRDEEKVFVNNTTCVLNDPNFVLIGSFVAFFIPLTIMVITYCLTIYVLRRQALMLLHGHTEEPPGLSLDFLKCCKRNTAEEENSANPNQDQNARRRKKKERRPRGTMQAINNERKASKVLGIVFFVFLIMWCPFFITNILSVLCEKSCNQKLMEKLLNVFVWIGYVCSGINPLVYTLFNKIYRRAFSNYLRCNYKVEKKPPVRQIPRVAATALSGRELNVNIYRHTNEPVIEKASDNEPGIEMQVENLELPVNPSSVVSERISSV

[9] = target: 5-ht5a (Homo sapiens, UniProt P47898); experiment: Radioligand competition binding, 5-ht5a; details: Table 5; Cheng-Prusoff from best fit IC50
[10] = target: 5-HT6 (Homo sapiens, UniProt P50406); experiment: Radioligand competition binding, 5-HT6; details: Table 5; Cheng-Prusoff from best fit IC50
[11] = target: 5-HT7 (Homo sapiens, UniProt P34969); experiment: Radioligand competition binding, 5-HT7; details: Table 5; Cheng-Prusoff from best fit IC50
[12] = target: D1 (Homo sapiens, UniProt P21728); experiment: Radioligand competition binding, D1; details: Table 5; Cheng-Prusoff from best fit IC50; some values marked (AVE)
[13] = target: D3 (Homo sapiens, UniProt P35462); experiment: Radioligand competition binding, D3; details: Table 5; Cheng-Prusoff from best fit IC50; one value marked (AVE)
[14] = target: T3, D4 (Homo sapiens, UniProt P21917); experiment: Radioligand competition binding, D4; details: Table 5; Cheng-Prusoff from best fit IC50
T3 sequence (P21917 1-419): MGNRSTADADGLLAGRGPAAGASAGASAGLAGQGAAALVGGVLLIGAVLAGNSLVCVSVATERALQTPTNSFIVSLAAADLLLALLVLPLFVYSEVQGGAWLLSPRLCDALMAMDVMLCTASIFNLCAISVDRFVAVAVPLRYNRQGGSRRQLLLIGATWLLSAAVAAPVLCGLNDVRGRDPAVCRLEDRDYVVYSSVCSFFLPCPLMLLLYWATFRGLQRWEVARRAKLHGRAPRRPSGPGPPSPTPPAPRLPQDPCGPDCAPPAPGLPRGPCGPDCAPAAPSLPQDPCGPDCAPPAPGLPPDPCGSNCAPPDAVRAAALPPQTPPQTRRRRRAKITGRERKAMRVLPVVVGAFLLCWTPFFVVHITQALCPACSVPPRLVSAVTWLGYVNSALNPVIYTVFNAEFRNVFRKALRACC

[15] = target: H2 (Homo sapiens, UniProt P25021); experiment: Radioligand competition binding, H2; details: Table 5; Cheng-Prusoff from best fit IC50
[16] = target: KOR (Homo sapiens, UniProt P41145); experiment: Radioligand competition binding, KOR; details: Table 5; Cheng-Prusoff from best fit IC50; some values marked (AVE)
[17] = target: M4 (Homo sapiens, UniProt P08173); experiment: Radioligand competition binding, M4; details: Table 5; Cheng-Prusoff from best fit IC50; one value marked (AVE)
[18] = target: PBR (UniProt P16257); experiment: Radioligand competition binding, PBR; details: Table 5; Cheng-Prusoff from best fit IC50; one value marked (AVE)
[19] = target: SERT (Homo sapiens, UniProt P31645); experiment: Radioligand competition binding, SERT; details: Table 5; Cheng-Prusoff from best fit IC50

Question: `CCN(CC)C(=O)CCN1CCN(c2ccc3c(c2)C(N(C)C(=O)OCc2ccccc2)CCC3)CC1` (stereo not drawn) [MDW-1-213, Benzyl (7-(4-(3-(diethylamino)-3-oxopropyl)piperazin-1-yl)-1,2,3,4-tetrahydronaphthalen-1-yl)(methyl)carbamate] was tested. Which Ki [1] did it give?
Answer: 2100 nM

Question: And the Ki ([2]; Table 1, 7-piperazinyl-tetrahydronaphthalene analogs, read-out: Ki (nM) Sig2R)?
Answer: 7 nM

Question: And the “Ki ratio Sig1R/Sig2R” value ([2]; Table 1, ratio of Sig1R Ki to Sig2R Ki)?
Answer: 292

Question: What about the Ki ([2]; Table 5, Cheng-Prusoff from best fit IC50, read-out: Ki Sigma 2) of the same compound?
Answer: 7.2 nM

Question: And the Ki [3]?
Answer: 335 nM

Question: What about the Ki [4] of the same compound?
Answer: 317 nM

Question: What about the Ki [5] of the same compound?
Answer: 1360 nM

Question: What about the Ki [6] of the same compound?
Answer: 957 nM

Question: What about the Ki [7] of the same compound?
Answer: 692 nM

Question: And the Ki [8]?
Answer: 2630 nM

Question: What about the Ki [9] of the same compound?
Answer: 1880 nM

Question: And the Ki [10]?
Answer: 932 nM

Question: And the Ki [11]?
Answer: 828 nM

Question: And the Ki [12]?
Answer: 4050 nM

Question: What about the Ki [13] of the same compound?
Answer: 852 nM

Question: And the Ki [14]?
Answer: 319 nM

Question: What about the Ki [15] of the same compound?
Answer: 333 nM

Question: And the Ki [16]?
Answer: 5350 nM

Question: What about the Ki [17] of the same compound?
Answer: 3280 nM

Question: What about the Ki [18] of the same compound?
Answer: 1200 nM

Question: And the Ki [19]?
Answer: > 10000 nM
